In patent US11046691B1 (IDEAYA BIOSCIENCES, INC., priority 2018, dated 2021):

Each molecule was assayed against hMAT2A (Homo sapiens (Human), UniProt P31153) (assay: Phosphate Sensor Fluorescence Assay (MAT2A enzyme inhibition)). Settings: L-methionine 500 uM, ATP 500 uM, class symbols.
Format: biochemical
In short: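 Recombinant MAT2A preincubated 15 min at room temperature with compound, then reacted 1 h at room temperature with 500 uM L-methionine and 500 uM ATP in Tris pH 7.5 buffer containing PNP/7-MEG.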

Sequence of hMAT2A (P31153 whole entry): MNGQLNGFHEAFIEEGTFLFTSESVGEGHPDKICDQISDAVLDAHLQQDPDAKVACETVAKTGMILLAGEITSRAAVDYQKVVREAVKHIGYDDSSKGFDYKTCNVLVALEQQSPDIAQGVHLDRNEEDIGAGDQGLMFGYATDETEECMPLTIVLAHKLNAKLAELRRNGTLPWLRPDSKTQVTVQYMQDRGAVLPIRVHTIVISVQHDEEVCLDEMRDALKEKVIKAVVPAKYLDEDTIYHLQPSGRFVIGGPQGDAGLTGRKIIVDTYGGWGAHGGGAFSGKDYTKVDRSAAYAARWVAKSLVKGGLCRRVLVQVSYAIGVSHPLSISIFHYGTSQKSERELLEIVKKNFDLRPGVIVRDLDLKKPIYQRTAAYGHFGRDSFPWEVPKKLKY

Compound | IC50 [nM]
[2H]C([2H])([2H])Nc1nc(=O)n(-c2ccccc2Br)c2cc(Cl)ccc12 [Example 368, 1-(2-bromophenyl)-7-chloro-4-((methyl-d3)amino)quinazolin-2(1H)-one] | < 200
[2H]C([2H])([2H])Nc1nc(=O)n(-c2ccccc2)c2cc(C(F)(F)F)ccc12 [Example 369, 4-((methyl-d3)amino)-1-phenyl-7-(trifluoromethyl)quinazolin-2(1H)-one] | < 200
[2H]C([2H])([2H])Nc1nc(=O)n(-c2ccccc2Cl)c2nc(C(F)(F)F)ccc12 [Example 379, 1-(2-chlorophenyl)-4-((methyl-d3)-amino)-7-(trifluoromethyl)pyrido[2,3-d]pyrimidin-2(1H)-one] | < 200
Nc1nc(=O)n(-c2ccccc2)c2cc(Cl)cc(Cl)c12 [Example 383, 4-amino-5,7-dichloro-1-phenyl-hydroquinazolin-2-one] | 500 to 1000
Nc1nc(=O)n(-c2ccccc2)c2cc(Cl)cc(-n3cccn3)c12 [Example 387, 4-amino-7-chloro-1-phenyl-5-pyrazol-1-ylhydroquinazolin-2-one] | 1000 to 10000
COc1nc(=O)n(-c2ccccc2)c2nc(C)ccc12 [Example 396, 4-methoxy-7-methyl-1-phenylpyrido-[2,3-d]pyrimidin-2(1H)-one] | 200 to 500
CNc1nc(=O)n(-c2cccc(Br)c2)c2cc(Cl)ccc12 [Example 401, 1-(3-bromophenyl)-7-chloro-4-(methylamino)hydroquinazolin-2-one] | 200 to 500
CNc1nc(=O)n(-c2ccccc2)c2cc(Cl)cc(OCCN)c12 [Example 402, 5-(2-aminoethoxy)-7-chloro-4-(methyl-amino)-1-phenylhydroquinazolin-2-one] | 500 to 1000
CS(=O)(=O)CCNc1nc(=O)n(-c2ccccc2Cl)c2cc(C3CC3)c(C#N)cc12 [Example 403, 1-(2-chlorophenyl)-7-cyclopropyl-4-((2-(methylsulfonyl)ethyl)amino)-2-oxo-1,2-dihydroquinazoline-6-carbonitrile] | 1000 to 10000
COc1nc(=O)n(-c2cccnc2C)c2cc(C(F)(F)F)ccc12 [Example 405] | < 200
CNc1nc(=O)n(-c2ccccc2Cl)c2cc(C3CC3)cc(OC(F)F)c12 [Example 406, 5-(difluoromethoxy)-1-(2-chlorophenyl)-7-cyclopropyl-4-(methylamino)hydro-quinazolin-2-one] | 200 to 500
COc1cc(C2CC2)cc2c1c(NCC1(F)CC1)nc(=O)n2-c1ccccc1Cl [Example 407, 1-(2-chlorophenyl)-7-cyclopropyl-4-{[(fluorocyclopropyl)methyl]amino}-5-methoxyhydroquinazolin-2-one] | < 200
N#Cc1cc2c(NCC3CCO3)nc(=O)n(-c3ccccc3Cl)c2cc1C1CC1 (stereo not drawn) [Example 408, 1-(2-chlorophenyl)-7-cyclopropyl-4-((oxetan-2-ylmethyl)amino)-2-oxo-1,2-dihydroquinazoline-6-carbonitrile] | 500 to 1000
N#Cc1cc2c(NCC3CC3)nc(=O)n(-c3ccccc3Cl)c2cc1C1CC1 [Example 409, 1-(2-chlorophenyl)-7-cyclopropyl-4-((cyclopropylmethyl)amino)-2-oxo-1,2-dihydroquinazoline-6-carbonitrile] | < 200
CCc1cc(C2CC2)cc2c1c(NC)nc(=O)n2-c1ccccc1C [Example 410, 7-cyclopropyl-5-ethyl-4-(methylamino)-1-(2-methylphenyl)hydroquinazolin-2-one] | < 200
O=c1nc(NCC2CC2)c2cc(Cl)c(C3CC3)cc2n1-c1ccccc1Cl [Example 411] | < 200
O=c1nc(Nc2cnoc2)c2cc(Cl)c(Br)cc2n1-c1ccccc1Cl [Example 412, 7-bromo-6-chloro-1-(2-chlorophenyl)-4-(isoxazol-4-ylamino)hydroquinazolin-2-one] | < 200
O=c1nc(N[C@@H]2C[C@@H]2F)c2ccc(C3CC3)cc2n1-c1ccccc1Cl [Example 413, 4-[((2S,1R)-2-fluorocyclopropyl)amino]-1-(2-chlorophenyl)-7-cyclopropyl-hydroquinazolin-2-one] | < 200
CNc1nc(=O)n(-c2ccccc2)c2nc(C(C)C)ccc12 [Example 414, 4-(methylamino)-7-(methylethyl)-1-phenylpyrido[2,3-d]pyrimidin-2(1H)-2-one] | < 200

Now from value to molecule:

IC50 [nM] | Compound
< 200 | CNc1nc(=O)n(-c2ncccc2Cl)c2cc(Cl)ccc12 [Example 370, 7-chloro-1-(3-chloro(2-pyridyl))-4-(methylamino)hydroquinazolin-2-one]
< 200 | CNc1nc(=O)n(-c2ncccc2C)c2cc(Cl)ccc12 [Example 371]
< 200 | O=c1nc(N2CC(O)C2)c2ccc(C3CC3)cc2n1-c1ccccc1 [Example 372, 7-cyclopropyl-4-(3-hydroxyazetidin-1-yl)-1-phenylhydroquinazolin-2-one]
< 200 | O=c1nc(NCC(F)F)c2ccc(C3CC3)cc2n1-c1ccccc1 [Example 373]
< 200 | O=c1nc(N2CC[C@@H](O)C2)c2ccc(C3CC3)cc2n1-c1ccccc1 [Example 374, 4-((3R)-3-hydroxypyrrolidinyl)-7-cyclopropyl-1-phenylhydroquazolin-2-one]
< 200 | CNc1nc(=O)n(-c2cnccc2C)c2nc(C(F)(F)F)ccc12 [Example 376]
< 200 | CNc1nc(=O)n(-c2cnccc2Cl)c2nc(C(F)(F)F)ccc12 [Example 377, 1-(4-chloropyridin-3-yl)-4-(methyl-amino)-7-(trifluoromethyl)pyrido[2,3-d]pyrimidin-2(1H)-one]
< 200 | CNc1nc(=O)n(-c2cccnc2)c2nc(C(F)(F)F)ccc12 [Example 378, 4-(methylamino)-1-(pyridin-3-yl)-7-(trifluoromethyl)pyrido[2,3-d]pyrimidin-2(1H)-one]
< 200 | CNc1nc(=O)n(-c2cccnc2C)c2nc(C(F)(F)F)ccc12 [Example 380, 4-(methylamino)-1-(2-methylpyridin-3-yl)-7-(trifluoromethyl)pyrido[2,3-d]-pyrimidin-2(1H)-one]
< 200 | CNc1nc(=O)n(-c2cccc3ncsc23)c2nc(C(F)(F)F)ccc12 [Example 381, 1-benzothiazol-7-yl-4-(methylamino)-7-(trifluoromethyl)pyrido[2,3-d]pyrimidin-2(1H)-one]
< 200 | Cc1ccc2c(N3CC(O)C3)nc(=O)n(-c3ccccc3)c2n1 [Example 384, 4-(3-hydroxyazetidin-1-yl)-7-methyl-1-phenylpyrido[2,3-d]pyrimidin-2(1H)-one]
< 200 | O=c1nc(NCC(F)(F)F)c2ccc(C3CC3)cc2n1-c1ccccc1 [Example 385, 7-cyclopropyl-1-phenyl-4-[(2,2,2-trifluoroethyl)amino]hydroquinazolin-2-one]
< 200 | O=c1nc(N2CCCC2)c2ccc(C3CC3)cc2n1-c1ccccc1 [Example 386, 7-cyclopropyl-1-phenyl-4-pyrrolidin-1-ylhydroquinazolin-2-one]
< 200 | O=c1[nH]c(=O)n(-c2ccccc2Cl)c2nc(C(F)(F)F)ccc12 [Example 388, 1-(2-chlorophenyl)-7-(trifluoromethyl)-1,3-dihydropyridino[2,3-d]pyrimidine-2,4-dione]
< 200 | O=c1nc(NCC(F)(F)F)c2ccc(C(F)(F)F)nc2n1-c1ccccc1Cl [Example 389, 1-(2-chlorophenyl)-4-[(2,2,2-trifluoro-ethyl)amino]-7-(trifluoro-methyl)-pyrido[2,3-d]pyrimidin-2(1H)-one]
< 200 | CNc1nc(=O)n(-c2cncc(O)c2)c2nc(C(F)(F)F)ccc12 [Example 390, 1-(5-hydroxypyridin-3-yl)-4-(methyl-amino)-7-(trifluoromethyl)pyrido[2,3-d]-pyrimidin-2(1H)-one]
< 200 | CNc1nc(=O)n(-c2ccnc(O)c2)c2nc(C(F)(F)F)ccc12 [Example 391, 1-(2-hydroxypyridin-4-yl)-4-(methyl-amino)-7-(trifluoromethyl)-pyrido[2,3-d]pyrimidin-2(1H)-one]
< 200 | C#Cc1ccc2c(NC)nc(=O)n(-c3ccccc3)c2c1 [Example 394, 7-ethynyl-4-(methylamino)-1-phenyl-hydroquinazolin-2-one]
< 200 | O=c1nc(N2CC[C@@H](O)C2)c2ccc(C(F)(F)F)cc2n1-c1ccccc1Cl [Example 395, 4-((3R)-3-hydroxypyrrolidin-1-yl)-1-(2-chlorophenyl)-7-(trifluoromethyl)hydro-quinazolin-2-one]
< 200 | Cc1ccc2c(NCC(F)(F)F)nc(=O)n(-c3ccccc3)c2n1 [Example 397, 7-methyl-1-phenyl-4-[(2,2,2-trifluoro-ethyl)amino]pyrido[2,3-d]pyrimidin-2(1H)-one]
< 200 | Cc1ccc2c(NCC(F)F)nc(=O)n(-c3ccccc3)c2n1 [Example 398, 4-[(2,2-difluoroethyl)amino]-7-methyl-1-phenylpyrido[2,3-d]pyrimidin-2(1H)-one]
< 200 | COc1nc(=O)n(-c2ccccc2)c2cc(C3CC3)ccc12 [Example 399, 7-cyclopropyl-4-methoxy-1-phenyl-hydroquinazolin-2-one]
< 200 | Nc1nc(=O)n(-c2ccccc2)c2cc(C3CC3)ccc12 [Example 400, 4-amino-7-cyclopropyl-1-phenylhydro-quinazolin-2-one]

Same assay, conditions: L-methionine 500 uM, ATP 500 uM, numeric bound

IC50 [nM] | Compound
> 10000 | Cc1ccccc1-n1c(=O)[nH]c(=O)c2ccc(C3CC3)cc21 [Example 375, 7-cyclopropyl-1-(o-tolyl)quinazoline-2,4(1H,3H)-dione]
> 10000 | CCC(C)c1ccc2c(NC)nc(=O)n(-c3ccccc3)c2c1 (stereo not drawn) [Example 382, 4-(methylamino)-7-(methylpropyl)-1-phenylhydroquinazolin-2-one]
> 10000 | CNc1nc(=O)n(-c2cnccc2O)c2nc(C(F)(F)F)ccc12 [Example 392, 1-(4-hydroxypyridin-3-yl)-4-(methyl-amino)-7-(trifluoromethyl)pyrido[2,3-d]-pyrimidin-2(1H)-one]
